Measured values: PubChem BioAssay AID256 (DTP/NCI, 2004)
Toxic doses and inconclusive results are not listed. Rule for the calls: active = survival T/C of 150% or more; inactive = T/C below 125% in these data.

Test system: CD2F1 mice, L1210 leukemia ip, survival T/C
Experiment: NCI In Vivo Anticancer Drug Screen. Data for tumor model L1210 Leukemia (intraperitoneal) in CD2F1 (CDF1) mice
Conditions: higher = longer survival
Method in brief: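 Antitumor effect is scored in animals hosting a serially transplanted tumor. Values compare compound-dosed animals against vehicle-only controls as a simple quotient.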

[1] = endpoint: mean survival time, dose: 75.0 mg/kg/injection, schedule: Q01DX001 (ip), vehicle: saline
[2] = endpoint: mean survival time, dose: 50.0 mg/kg/injection, schedule: Q04DX003 (ip), vehicle: saline with Tween-80

Measured: T/C

CSc1nnc(Sc2ccccc2)c(SC)n1
inactive: [1] 101 % of control | endpoint: mean survival time, dose: 150.0 mg/kg/injection, schedule: Q01DX001 (ip), vehicle: saline 98 % of control

COc1cc2nncc(Sc3cnnc4ccccc34)c2cc1OC
inactive: endpoint: mean survival time, dose: 100.0 mg/kg/injection, schedule: Q01DX001 (ip), vehicle: other 92 % of control | endpoint: mean survival time, dose: 200.0 mg/kg/injection, schedule: Q01DX001 (ip), vehicle: other 86 % of control | endpoint: mean survival time, dose: 400.0 mg/kg/injection, schedule: Q01DX001 (ip), vehicle: other 92 % of control

NCCNc1ccccc1C(=O)O
inactive: endpoint: median survival time, dose: 50.0 mg/kg/injection, schedule: Q04DX002 (ip), vehicle: saline with Tween-80 111 % of control | endpoint: median survival time, dose: 100.0 mg/kg/injection, schedule: Q04DX002 (ip), vehicle: saline with Tween-80 100 % of control | endpoint: median survival time, dose: 200.0 mg/kg/injection, schedule: Q04DX002 (ip), vehicle: saline with Tween-80 100 % of control | endpoint: median survival time, dose: 400.0 mg/kg/injection, schedule: Q04DX002 (ip), vehicle: saline with Tween-80 111 % of control

CCOC(=O)c1c(C)nc(C)c(C(=O)OCC)c1-c1cccc([N+](=O)[O-])c1
inactive: [2] 97 % of control | endpoint: mean survival time, dose: 100.0 mg/kg/injection, schedule: Q04DX003 (ip), vehicle: saline with Tween-80 105 % of control | endpoint: mean survival time, dose: 200.0 mg/kg/injection, schedule: Q04DX003 (ip), vehicle: saline with Tween-80 103 % of control

OCN(CO)c1ccc2c(c1)Cc1cc(Cl)ccc1-2
inactive: endpoint: mean survival time, dose: 100.0 mg/kg/injection, schedule: Q04DX003 (ip), vehicle: saline 97 % of control | endpoint: mean survival time, dose: 200.0 mg/kg/injection, schedule: Q04DX003 (ip), vehicle: saline 100 % of control | endpoint: mean survival time, dose: 400.0 mg/kg/injection, schedule: Q04DX003 (ip), vehicle: saline 91 % of control

COc1csn[n+]1-c1ccc(C)cc1
inactive: [1] 104 % of control

C(#Cc1ccccn1)c1ccccn1.[Pt].c1ccc([PH+](c2ccccc2)c2ccccc2)cc1.c1ccc([PH+](c2ccccc2)c2ccccc2)cc1
inactive: endpoint: median survival time, dose: 3.13 mg/kg/injection, schedule: Q04DX003 (ip), vehicle: distilled water + Tween-80 104 % of control | endpoint: median survival time, dose: 6.25 mg/kg/injection, schedule: Q04DX003 (ip), vehicle: distilled water + Tween-80 105 % of control | endpoint: median survival time, dose: 12.5 mg/kg/injection, schedule: Q04DX003 (ip), vehicle: distilled water + Tween-80 100 % of control | endpoint: median survival time, dose: 25.0 mg/kg/injection, schedule: Q04DX003 (ip), vehicle: distilled water + Tween-80 97 % of control | endpoint: median survival time, dose: 50.0 mg/kg/injection, schedule: Q04DX003 (ip), vehicle: distilled water + Tween-80 96 % of control | endpoint: median survival time, dose: 100.0 mg/kg/injection, schedule: Q04DX003 (ip), vehicle: distilled water + Tween-80 94 % of control

Cc1cc(NC(=O)NCCOc2ccc(N3C(N)=NC(N)=NC3(C)C)cc2Cl)ccc1S(=O)(=O)F
inactive: endpoint: mean survival time, dose: 12.5 mg/kg/injection, schedule: Q04DX003 (ip), vehicle: saline with Tween-80 107 % of control | endpoint: mean survival time, dose: 25.0 mg/kg/injection, schedule: Q04DX003 (ip), vehicle: saline with Tween-80 102 % of control | [2] 91 % of control

CCCN1COC(OCC)C(C)(C)C1 (stereo not drawn)
inactive: endpoint: mean survival time, dose: 12.5 mg/kg/injection, schedule: Q01DX009 (ip), vehicle: saline with Tween-80 112 % of control | endpoint: mean survival time, dose: 12.5 mg/kg/injection, schedule: Q01DX009 (ip), vehicle: saline 91 % of control | endpoint: mean survival time, dose: 25.0 mg/kg/injection, schedule: Q01DX009 (ip), vehicle: saline with Tween-80 100 % of control | endpoint: mean survival time, dose: 25.0 mg/kg/injection, schedule: Q01DX009 (ip), vehicle: saline 100 % of control | endpoint: mean survival time, dose: 50.0 mg/kg/injection, schedule: Q01DX009 (ip), vehicle: saline with Tween-80 107 % of control | endpoint: mean survival time, dose: 50.0 mg/kg/injection, schedule: Q01DX009 (ip), vehicle: saline 103 % of control | endpoint: mean survival time, dose: 100.0 mg/kg/injection, schedule: Q01DX009 (ip), vehicle: saline with Tween-80 114 % of control | endpoint: mean survival time, dose: 100.0 mg/kg/injection, schedule: Q01DX009 (ip), vehicle: saline 97 % of control | endpoint: mean survival time, dose: 200.0 mg/kg/injection, schedule: Q01DX009 (ip), vehicle: saline with Tween-80 106 % of control | endpoint: mean survival time, dose: 200.0 mg/kg/injection, schedule: Q01DX009 (ip), vehicle: saline 109 % of control

O=CC(O)CO (stereo not drawn)
inactive: endpoint: median survival time, dose: 129.6 mg/kg/injection, schedule: Q ##X015 (sc), vehicle: saline 109 % of control | endpoint: median survival time, dose: 129.6 mg/kg/injection, schedule: Q## X015 (sc), vehicle: saline 112 % of control | endpoint: median survival time, dose: 216.0 mg/kg/injection, schedule: Q ##X015 (sc), vehicle: saline 108 % of control | endpoint: median survival time, dose: 216.0 mg/kg/injection, schedule: Q## X015 (sc), vehicle: saline 112 % of control | endpoint: median survival time, dose: 360.0 mg/kg/injection, schedule: Q ##X015 (sc), vehicle: saline 119 % of control | endpoint: median survival time, dose: 360.0 mg/kg/injection, schedule: Q## X015 (sc), vehicle: saline 118 % of control | endpoint: median survival time, dose: 600.0 mg/kg/injection, schedule: Q ##X015 (sc), vehicle: saline 110 % of control | endpoint: median survival time, dose: 600.0 mg/kg/injection, schedule: Q## X015 (sc), vehicle: saline 112 % of control
